Measured values as given in patent publication US20250154686A1, “COMPOUND LIBRARY” (CHUGAI SEIYAKU KABUSHIKI KAISHA, priority 2021, published 2025).

Target: T1, Bcl-2 protein (Recombinant Human Bcl-2 Protein) (Homo sapiens, UniProt P10415)
T1 construct: purchased Novus Biologicals NBP2-34889
Test: AS-MS evaluation of binding of the Example 4 mixture library (1200 compounds/well) to Bcl-2, ASMS ratio (%)
Summary of the method: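 Binding is read as an ASMS ratio from reverse-phase LC/MS peak data. Samples: 1200 compounds at 20 nM each with 20 μM Bcl-2, 1 h at 23 °C in the dark, then P-2 SEC and organic-solvent extraction; references lacked protein, with and without SEC.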

[1] = AS-MS, Example 4 mixture library, Bcl-2, replicate n = 1
[2] = AS-MS, Example 4 mixture library, Bcl-2, replicate n = 2
[3] = replicate n = 1, mixture library, value belongs to the MS peak assigned to the compound
[4] = replicate n = 2, mixture library, value belongs to the MS peak assigned to the compound
[5] = AS-MS, mixture of 1200 compounds/well, Bcl-2 protein, replicate n = 1
[6] = AS-MS, mixture of 1200 compounds/well, Bcl-2 protein, replicate n = 2

T1 sequence (P10415 whole entry): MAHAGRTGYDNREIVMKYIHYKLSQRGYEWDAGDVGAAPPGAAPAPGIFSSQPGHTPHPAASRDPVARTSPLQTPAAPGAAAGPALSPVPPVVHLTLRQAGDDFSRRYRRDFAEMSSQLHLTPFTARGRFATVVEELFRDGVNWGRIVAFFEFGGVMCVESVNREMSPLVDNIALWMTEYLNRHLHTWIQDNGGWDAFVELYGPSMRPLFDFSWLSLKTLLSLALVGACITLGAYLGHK

| Compound | ASMS ratio (%) n = 1 [1] [%] | ASMS ratio (%) n = 2 [2] [%] | ASMS ratio (%) n = 1 [3] [%] | ASMS ratio (%) n = 2 [4] [%] | further results |
| --- | --- | --- | --- | --- | --- |
| CCOc1cncc(C#Cc2cncc(C(=O)N3CCN(c4ccc(C(=O)NS(=O)(=O)CCC(F)(F)F)nn4)CC3)c2)c1 [Compound B2N010-01, 6-[4-[5-[2-(5-Ethoxypyridin-3-yl)ethynyl]pyridine-3-carbonyl]piperazin-1-yl]-N-(3,3,3-trifluoropropylsulfonyl)pyridazine-3-carboxamide] | 0.0 | 0.0 |  |  |  |
| CCOc1cccc(-c2cnn(-c3cc(C(=O)N4CCN(c5ccc(C(=O)NS(C)(=O)=O)cc5)CC4)cc(C(F)(F)F)c3)c2)c1 [Compound B2I043-01, 4-[4-[3-[4-(3-Ethoxyphenyl)pyrazol-1-yl]-5-(trifluoromethyl)benzoyl]piperazin-1-yl]-N-methylsulfonylbenzamide] |  |  | 0.0 | 0.0 |  |
| CCOc1cccc(-c2ccc(C(=O)N3CCN(c4ccc(C(=O)NS(=O)(=O)c5ccc(NCCSc6ccccc6)c(C(F)(F)F)c5)cc4)CC3)cc2C)c1 [Compound B2R025-01, 4-[4-[4-(3-Ethoxyphenyl)-3-methylbenzoyl]piperazin-1-yl]-N-[4-(2-phenylsulfanylethylamino)-3-(trifluoromethyl)phenyl]sulfonylbenzamide] | −1.0 | −2.4 |  |  |  |
| CCOc1cncc(-c2csc(C(=O)N3CCN(c4ccc(C(=O)NS(=O)(=O)c5ccc(NCCSc6ccccc6)c(C(F)(F)F)c5)cc4)CC3)c2)c1 [Compound B2R024-01, 4-[4-[4-(5-Ethoxypyridin-3-yl)thiophene-2-carbonyl]piperazin-1-yl]-N-[4-(2-phenylsulfanylethylamino)-3-(trifluoromethyl)phenyl]sulfonylbenzamide] | 0.0 | −1.2 |  |  |  |
| CCOc1cccc(-c2cc(CN3CCN(c4ccc(C(=O)NS(=O)(=O)c5ccc(NCCSc6ccccc6)c([N+](=O)[O-])c5)nn4)CC3)cc(OC(F)(F)F)c2)c1 [Compound B2Q089-01, 6-[4-[[3-(3-Ethoxyphenyl)-5-(trifluoromethoxy)phenyl]methyl]piperazin-1-yl]-N-[3-nitro-4-(2-phenylsulfanylethylamino)phenyl]sulfonylpyridazine-3-carboxamide] |  |  |  |  | ASMS ratio (%) n = 2 (Example 4 mixture library, 1200 compounds/well, Bcl-2 protein, replicate n = 2, value belongs to the MS peak assignable to the compound): −15.0% |
| CCOc1cncc(-c2cc(C(=O)N3CCN(c4ccc(C(=O)NS(=O)(=O)c5ccc(NCCSc6ccccc6)c(C(F)(F)F)c5)nn4)CC3)cc(C(F)(F)F)c2)c1 [Compound B2R018-01, 6-[4-[3-(5-Ethoxypyridin-3-yl)-5-(trifluoromethyl)benzoyl]piperazin-1-yl]-N-[4-(2-phenylsulfanylethylamino)-3-(trifluoromethyl)phenyl]sulfonylpyridazine-3-carboxamide] | 5.1 | 7.8 |  |  |  |
| CCOc1cccc(C#Cc2cc(C(=O)N3CCN(c4ccc(C(=O)NS(C)(=O)=O)cc4)CC3)cc(C(F)(F)F)c2)c1 [Compound B2I041-01, 4-[4-[3-[2-(3-Ethoxyphenyl)ethynyl]-5-(trifluoromethyl)benzoyl]piperazin-1-yl]-N-methylsulfonylbenzamide] |  |  | 0.0 | 0.0 |  |
| CCCNC(=O)c1ccc(N2CCN(Cc3cc(-c4cncc(OCC)c4)cs3)CC2)cc1 [Compound B1M068-01] |  |  |  |  | ASMS ratio (%) n = 1 [5]: 1.1%; ASMS ratio (%) n = 2 [6]: 0.0% |
| CCOc1cccc(-c2cc(CN3CCN(c4ccc(C(=O)NS(C)(=O)=O)cc4)CC3)cc(OC(F)(F)F)c2)c1 [Compound B2I063-01, 4-[4-[[3-(3-Ethoxyphenyl)-5-(trifluoromethoxy)phenyl]methyl]piperazin-1-yl]-N-methylsulfonylbenzamide] |  |  | 0.9 | 0.0 |  |
| CCCNC(=O)c1ccc(N2CCN(C(=O)c3cc(-c4cccc(OCC)c4)cc(C(F)(F)F)c3)CC2)nn1 [Compound B1M017-01] |  |  |  |  | ASMS ratio (%) n = 1 [5]: −0.1%; ASMS ratio (%) n = 2 [6]: 0.3% |
| CCOc1cncc(-c2ccc(C(C)N3CCN(c4ccc(C(=O)NS(=O)(=O)CCC(F)(F)F)cc4)CC3)cc2)c1 (stereo not drawn) [Compound B2N098-01, 4-[4-[1-[4-(5-Ethoxypyridin-3-yl)phenyl]ethyl]piperazin-1-yl]-N-(3,3,3-trifluoropropylsulfonyl)benzamide] | 0.0 | −0.7 |  |  |  |
| CCOc1cccc(-c2ccc(CN3CCN(c4ccc(C(=O)NS(=O)(=O)c5ccc(NCCSc6ccccc6)c(C(F)(F)F)c5)cc4)CC3)c3ccccc23)c1 [Compound B2R065-01, 4-[4-[[4-(3-Ethoxyphenyl)naphthalen-1-yl]methyl]piperazin-1-yl]-N-[4-(2-phenylsulfanylethylamino)-3-(trifluoromethyl)phenyl]sulfonylbenzamide] | 3.8 | 0.3 |  |  |  |
| CCOc1cccc(-c2cc(C(=O)N3CCN(c4ccc(C(=O)NS(=O)(=O)CCC(F)(F)F)cc4)CC3)cc(C(C)(C)C)c2)c1 [Compound B2N037-01, 4-[4-[3-tert-Butyl-5-(3-ethoxyphenyl)benzoyl]piperazin-1-yl]-N-(3,3,3-trifluoropropylsulfonyl)benzamide] | 0.0 | 0.0 |  |  |  |

More lines, main results first:

| ASMS ratio (%) n = 1 [1] [%] | ASMS ratio (%) n = 2 [2] [%] | ASMS ratio (%) n = 1 [3] [%] | ASMS ratio (%) n = 2 [4] [%] | Compound | further results |
| --- | --- | --- | --- | --- | --- |
|  |  | 0.0 | 0.0 | CCOc1cccc(-c2cc(CN3CCN(c4ccc(C(=O)NS(C)(=O)=O)cc4)CC3)cc(OCC)c2)c1 [Compound B2I055-01, 4-[4-[[3-Ethoxy-5-(3-ethoxyphenyl)phenyl]methyl]piperazin-1-yl]-N-methylsulfonylbenzamide] |  |
| 0.0 | 0.0 |  |  | CCOc1cncc(-c2cc(OC)c(CN3CCN(c4ccc(C(=O)NS(=O)(=O)CCC(F)(F)F)nn4)CC3)c(OC)c2)c1 [Compound B2N086-01, 6-[4-[[4-(5-Ethoxypyridin-3-yl)-2,6-dimethoxyphenyl]methyl]piperazin-1-yl]-N-(3,3,3-trifluoropropylsulfonyl)pyridazine-3-carboxamide] |  |
|  |  | 0.8 | 1.3 | CCOc1cncc(-c2ccccc2CN2CCN(c3ccc(C(=O)NS(C)(=O)=O)nn3)CC2)c1 [Compound B2I072-01, 6-[4-[[2-(5-Ethoxypyridin-3-yl)phenyl]methyl]piperazin-1-yl]-N-methylsulfonylpyridazine-3-carboxamide] |  |
|  |  | −1.9 | −2.5 | CCOc1cncc(-c2cc(C(=O)N3CCN(c4ccc(C(=O)NS(=O)(=O)C(C)(C)C)nn4)CC3)cc(C(F)(F)F)c2)c1 [Compound B2L018-01, N-tert-Butylsulfonyl-6-[4-[3-(5-ethoxypyridin-3-yl)-5-(trifluoromethyl)benzoyl]piperazin-1-yl]pyridazine-3-carboxamide] |  |
|  |  | 0.0 | −8.4 | CCOc1cncc(-c2ccc(CN3CCN(c4ccc(C(=O)NS(C)(=O)=O)nn4)CC3)cc2C)c1 [Compound B2I074-01, 6-[4-[[4-(5-Ethoxypyridin-3-yl)-3-methylphenyl]methyl]piperazin-1-yl]-N-methylsulfonylpyridazine-3-carboxamide] |  |
| 0.0 | 0.0 |  |  | CCOc1cccc(-c2ccc(CN3CCN(c4ccc(C(=O)NS(=O)(=O)CCC(F)(F)F)nn4)CC3)cc2F)c1 [Compound B2N077-01, 6-[4-[[4-(3-Ethoxyphenyl)-3-fluorophenyl]methyl]piperazin-1-yl]-N-(3,3,3-trifluoropropylsulfonyl)pyridazine-3-carboxamide] |  |
| 0.0 | 0.0 |  |  | CCOc1cccc(-c2ccc(CN3CCN(c4ccc(C(=O)NS(=O)(=O)CCC(F)(F)F)nn4)CC3)cc2C)c1 [Compound B2N073-01, 6-[4-[[4-(3-Ethoxyphenyl)-3-methylphenyl]methyl]piperazin-1-yl]-N-(3,3,3-trifluoropropylsulfonyl)pyridazine-3-carboxamide] |  |
|  |  | 0.0 | 0.0 | CCOc1cncc(-c2csc(CN3CCN(c4ccc(C(=O)NS(C)(=O)=O)cc4)CC3)c2)c1 [Compound B2I068-01, 4-[4-[[4-(5-Ethoxypyridin-3-yl)thiophen-2-yl]methyl]piperazin-1-yl]-N-methylsulfonylbenzamide] |  |
| 0.0 | 0.0 |  |  | CCOc1cncc(-c2cc(CN3CCN(c4ccc(C(=O)NS(=O)(=O)CCC(F)(F)F)nn4)CC3)cc(OC(F)(F)F)c2)c1 [Compound B2N090-01, 6-[4-[[3-(5-Ethoxypyridin-3-yl)-5-(trifluoromethoxy)phenyl]methyl]piperazin-1-yl]-N-(3,3,3-trifluoropropylsulfonyl)pyridazine-3-carboxamide] |  |
|  |  | 0.0 | 0.0 | CCOc1cccc(-c2ccc(C(=O)N3CCN(c4ccc(C(=O)NS(=O)(=O)C(C)(C)C)nn4)CC3)cc2F)c1 [Compound B2L005-01] |  |
